Measurements reported in US12448368B2, “Indole compounds as androgen receptor modulators” (NIDO BIOSCIENCES, INC., priority 2020, dated 2025).

Target: T1, androgen receptor (AR) (Homo sapiens, UniProt P10275, T878A)
T1 construct: LNCaP cells expressing ARR2PB-FireflyLuc and CMV-RenillaLuc; endogenous in cells; host or cells: LNCaP cells carrying ARR2PB-FireflyLuc and CMV-RenillaLuc reporters
T1 sequence (P10275 1-920 T878A): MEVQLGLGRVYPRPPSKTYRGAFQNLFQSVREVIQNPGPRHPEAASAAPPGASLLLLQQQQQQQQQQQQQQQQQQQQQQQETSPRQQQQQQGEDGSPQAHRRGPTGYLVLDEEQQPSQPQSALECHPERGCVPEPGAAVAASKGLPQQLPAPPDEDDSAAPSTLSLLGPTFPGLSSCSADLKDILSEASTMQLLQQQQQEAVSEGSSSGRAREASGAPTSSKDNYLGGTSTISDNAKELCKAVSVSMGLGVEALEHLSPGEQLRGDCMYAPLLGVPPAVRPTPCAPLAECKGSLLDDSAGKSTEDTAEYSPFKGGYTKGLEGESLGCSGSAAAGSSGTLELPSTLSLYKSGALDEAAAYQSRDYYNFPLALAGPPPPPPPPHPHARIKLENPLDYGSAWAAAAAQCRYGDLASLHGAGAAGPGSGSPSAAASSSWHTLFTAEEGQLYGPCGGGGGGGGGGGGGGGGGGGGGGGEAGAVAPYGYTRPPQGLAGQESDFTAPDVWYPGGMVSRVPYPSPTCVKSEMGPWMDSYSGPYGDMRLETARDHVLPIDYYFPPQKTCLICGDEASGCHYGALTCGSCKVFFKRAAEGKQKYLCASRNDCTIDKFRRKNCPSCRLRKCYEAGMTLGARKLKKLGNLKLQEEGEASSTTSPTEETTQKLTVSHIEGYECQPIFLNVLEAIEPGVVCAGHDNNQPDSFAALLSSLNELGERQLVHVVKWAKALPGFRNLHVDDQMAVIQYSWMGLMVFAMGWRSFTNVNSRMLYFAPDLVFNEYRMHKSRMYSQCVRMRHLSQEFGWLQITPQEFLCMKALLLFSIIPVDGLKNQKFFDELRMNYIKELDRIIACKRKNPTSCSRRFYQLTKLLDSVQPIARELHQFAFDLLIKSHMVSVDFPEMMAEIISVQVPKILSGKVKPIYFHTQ
Assay: AR reporter assay in LNCaP cells expressing ARR2PB-FireflyLuc and CMV-RenillaLuc, antagonist mode (% remaining activity, IC50)
Format: cell-based
Details: 48 h at 37° C., class symbols A-D, read-out: IC50
Protocol: LNCaP cells expressing ARR2PB-FireflyLuc and CMV-RenillaLuc were treated with indicated concentrations of test compounds, enzalutamide (negative control), or DHT (positive control)+/−0.5 nM DHT for 48 h at 37° C. […] Remaining activity (antagonist mode) was calculated as % Remaining Activity=100×[(Readsample−LCave)/(HCave−LCave)] where HC is cells treated with 0.5 nM DHT only and LC is cells treated with 10 uM enzalutamide+0.5 nM DHT. Activation (agonist mode) was calculated as % Activation=100×[(ReadSample−LCave)/(HCave−LCave)] where HC is cells treated with 1 uM DHT and LC is cells treated with DMSO. Dose response curves and IC50 values were calculated using non-linear regression analysis in XLfit.
The designation “A” indicates an IC50 value of >10 μM, “B” indicates an IC50 value between 1 μM and 10 μM; “C” indicates an IC50 value between 100 nM and 1 μM; and “D” indicates an IC50 value of less than 100 nM.

IC50 | Compound
0.1 to 1 µM | CC1(C)CCNc2ccc(-c3n[nH]c4ccc(F)cc34)nc21 [Compound 78]
> 10 µM | CCOC(=O)c1coc(-c2n[nH]c3c(C)cccc23)n1 [Compound 79]
1 to 10 µM | Cc1cc(-c2n[nH]c3cc(F)c(F)cc23)nc2c1NC(=O)CC2 [Compound 80]
> 10 µM | c1ccc(-c2cc(-c3ccc4c(n3)CCCN4)n[nH]2)cc1 [Compound 81]
> 10 µM | Cc1[nH]nc(-c2ccc3c(n2)CCCN3)c1C [Compound 82]
> 10 µM | c1cc2c(nc1-c1n[nH]c3c1COCC3)CCCN2 [Compound 83]
> 10 µM | c1ccc(-c2cc(-c3ccc4c(n3)CCCN4)n[nH]2)nc1 [Compound 84]
> 10 µM | N#Cc1cccc2c(-c3ccc4ncccc4n3)nn(C3CCCCO3)c12 (centres unmarked) [Compound 85]
0.1 to 1 µM | NCc1cccc2c(-c3ccc4ncccc4n3)n[nH]c12 [Compound 86]
1 to 10 µM | CC(C)NCc1cccc2c(-c3ccc4ncccc4n3)n[nH]c12 [Compound 87]
1 to 10 µM | CC(C)c1nc(-c2n[nH]c3cc(F)c(F)cc23)ccc1N [Compound 88]
1 to 10 µM | CC(C)Oc1nc(-c2n[nH]c3cc(F)c(F)cc23)ccc1N [Compound 89]
1 to 10 µM | CCOc1nc(-c2n[nH]c3cc(F)c(F)cc23)ccc1N [Compound 90]
0.1 to 1 µM | COc1nc(-c2n[nH]c3cc(F)c(F)cc23)ccc1N [Compound 91]
0.1 to 1 µM | Nc1ccc(-c2n[nH]c3cc(F)c(F)cc23)nc1C(F)(F)F [Compound 92]
0.1 to 1 µM | Nc1ccc(-c2n[nH]c3cc(F)c(F)cc23)nc1Cl [Compound 93]
1 to 10 µM | CNc1ccc(-c2n[nH]c3cc(F)c(F)cc23)nc1C [Compound 94]
1 to 10 µM | CCNc1ccc(-c2n[nH]c3cc(F)c(F)cc23)nc1C [Compound 95]
> 10 µM | CC(=O)Nc1ccc(-c2n[nH]c3cc(F)c(F)cc23)nc1C [Compound 96]
> 10 µM | CC(=O)N(C)c1ccc(-c2n[nH]c3cc(F)c(F)cc23)nc1C [Compound 97]
1 to 10 µM | Cc1nc(-c2n[nH]c3cc(F)c(F)cc23)ccc1N(C)C [Compound 98]
0.1 to 1 µM | COc1ccc(-c2n[nH]c3cc(F)c(F)cc23)nc1C [Compound 99]
> 10 µM | CNC(=O)c1ccc(-c2n[nH]c3cc(F)c(F)cc23)nc1C [Compound 100]
> 10 µM | Cc1nc(-c2n[nH]c3cc(F)c(F)cc23)ccc1C(N)=O [Compound 101]
> 10 µM | Cc1nc(-c2n[nH]c3cc(F)c(F)cc23)ccc1C(=O)N(C)C [Compound 102]
< 0.1 µM | Cc1nc(-c2n[nH]c3cc(F)c(F)cc23)ccc1C#N [Compound 103]

IC50 | Compound
0.1 to 1 µM | CC1c2nc(-c3n[nH]c4cc(F)c(F)cc34)ccc2C(=O)N1C (centres unmarked) [Compound 104]
> 10 µM | CC1NC(=O)c2ccc(-c3nn(C)c4cc(F)c(F)cc34)nc21 (centres unmarked) [Compound 105]
> 10 µM | COc1ccc(CN2C(=O)c3ccc(-n4ncc5cc(F)c(F)cc54)nc3C2C)cc1 (centres unmarked) [Compound 106]
> 10 µM | CC1NC(=O)c2ccc(-n3ncc4cc(F)c(F)cc43)nc21 (centres unmarked) [Compound 107]
> 10 µM | CC1NC(=O)c2ccc(-n3cnc4cc(F)c(F)cc43)nc21 (centres unmarked) [Compound 108]
0.1 to 1 µM | CC1NC(=O)c2ccc(-c3n[nH]c4ccccc34)cc21 (centres unmarked) [Compound 109]
> 10 µM | CC1(C)NC(=O)c2ccc(-c3n[nH]c4cc(F)c(F)cc34)cc21 [Compound 110]
0.1 to 1 µM | Fc1ccc(-c2n[nH]c3cc(F)ccc23)nc1 [Compound 111]
> 10 µM | Fc1ccc(-c2n[nH]c3cccnc23)nc1 [Compound 112]
1 to 10 µM | Fc1ccc(-c2n[nH]c3ncccc23)cc1 [Compound 113]
1 to 10 µM | O=C1NCc2nc(-c3n[nH]c4ccccc34)ccc21 [Compound 114]
> 10 µM | O=S1(=O)CCNc2ccc(-c3n[nH]c4cc(F)c(F)cc34)nc21 [Compound 115]
1 to 10 µM | Fc1ccc(-c2n[nH]c3ncccc23)nc1 [Compound 116]
0.1 to 1 µM | FC(F)(F)c1ccc(-c2c[nH]c3ccccc23)nc1 [Compound 118]
0.1 to 1 µM | Fc1ccc(-c2c[nH]c3ccccc23)nc1 [Compound 119]
< 0.1 µM | N#Cc1cccc2c(-c3ccc4ccc(F)cc4n3)c[nH]c12 [Compound 120]
< 0.1 µM | N#Cc1cccc2c(-c3ccc4c(n3)CCCN4)c[nH]c12 [Compound 121]
0.1 to 1 µM | CC1(C)NC(=O)c2ccc(-c3c[nH]c4cc(F)c(F)cc34)nc21 [Compound 122]
> 10 µM | CCOC(=O)c1coc(-c2c[nH]c3c(C)cccc23)n1 [Compound 123]
1 to 10 µM | Cc1nc(-c2c[nH]c3cc(F)c(F)cc23)ccc1N [Compound 124]
0.1 to 1 µM | Cc1nc(-c2c[nH]c3c(C#N)cccc23)ccc1N [Compound 125]
0.1 to 1 µM | Fc1ccc(-c2c[nH]c3ncccc23)nc1 [Compound 126]
< 0.1 µM | N#Cc1cccc2c(-c3ccc(F)cn3)c[nH]c12 [Compound 127]
0.1 to 1 µM | c1cnc2[nH]cc(-c3ccc(C4CC4)cn3)c2c1 [Compound 128]
1 to 10 µM | c1cnc2[nH]cc(-c3ccc(C4COC4)cn3)c2c1 [Compound 129]
0.1 to 1 µM | Cc1nc(-c2c[nH]c3c(C#N)cc(F)cc23)ccc1N [Compound 130]

IC50 | Compound
< 0.1 µM | Cc1nc(-c2c[nH]c3c(C#N)cc(F)cc23)ccc1F [Compound 131]
1 to 10 µM | N#Cc1cccc2c(-c3ccc(N)cn3)c[nH]c12 [Compound 132]
0.1 to 1 µM | Cc1cccc(-c2c[nH]c3c(C#N)cccc23)n1 [Compound 133]
> 10 µM | Cc1nc(-c2c[nH]c3cccnc23)ccc1N [Compound 134]
1 to 10 µM | Cc1nc(-c2c[nH]c3ncccc23)ccc1N [Compound 135]
0.1 to 1 µM | CC1NC(=O)c2ccc(-c3c[nH]c4cc(F)c(F)cc34)nc21 (centres unmarked) [Compound 136]
0.1 to 1 µM | N#Cc1cccc2c(-c3ccc(N)c(Cl)n3)c[nH]c12 [Compound 137]
1 to 10 µM | Cc1cc(-c2c[nH]c3c(C#N)cccc23)ncc1N [Compound 138]
< 0.1 µM | N#Cc1cccc2c(-c3ccc(N)c(C4CC4)n3)c[nH]c12 [Compound 139]
1 to 10 µM | Cc1nc(-c2c[nH]c3c(C)cccc23)ccc1N [Compound 140]
1 to 10 µM | Cc1nc(-c2c[nH]c3c(F)cccc23)ccc1N [Compound 141]
1 to 10 µM | Cc1nc(-c2c[nH]c3c(C4CC4)cccc23)ccc1N [Compound 142]
1 to 10 µM | CC1(C)NC(=O)c2ccc(-c3c[nH]c4cc(F)c(F)cc34)cc21 [Compound 143]
> 10 µM | Cc1nc(-c2c[nH]c3c(-c4nnco4)cccc23)ccc1N [Compound 144]
> 10 µM | CNC(=O)c1cccc2c(-c3ccc(N)c(C)n3)c[nH]c12 [Compound 145]
< 0.1 µM | CNc1ccc(-c2c[nH]c3c(C#N)cccc23)nc1C [Compound 146]
0.1 to 1 µM | CCNc1ccc(-c2c[nH]c3c(C#N)cccc23)nc1C [Compound 147]
< 0.1 µM | Cc1nc(-c2c[nH]c3c(C#N)cccc23)ccc1N(C)C [Compound 148]
0.1 to 1 µM | Cc1nc(-c2c[nH]c3c(C#N)cccc23)cnc1N [Compound 149]
1 to 10 µM | Cc1ccc2c(-c3ccc(N)c(C)n3)c[nH]c2c1C#N [Compound 150]
0.1 to 1 µM | Cc1nc(-c2c[nH]c3c(C#N)c(Cl)ccc23)ccc1N [Compound 151]
1 to 10 µM | Cc1cc(C#N)c2[nH]cc(-c3ccc(N)c(C)n3)c2c1 [Compound 152]
1 to 10 µM | Cc1nc(-c2c[nH]c3c(C#N)cc(Cl)cc23)ccc1N [Compound 153]
0.1 to 1 µM | NCc1cc(F)cc2c(-c3ccc4ncccc4n3)c[nH]c12 [Compound 154]

Same assay, conditions: IC50 (μM), 48 h at 37° C., class symbols A-D

Compound | IC50
c1ccc2nc(-c3n[nH]c4ccccc34)ccc2c1 [Compound 117] | 0.1 to 1 µM
